Assays:
[1] = target: Serine/threonine-protein kinase ATR (Homo sapiens, UniProt Q13535); test: Inhibition of ATR (unknown origin) using peptide as substrate preincubated for 10 mins followed by substrate addition by microplate reader analysis
[2] = tested on: LoVo; test: Antiproliferative activity against ATM-deficient human LoVo cells assessed as reduction in cell proliferation at 0.2 uM incubated for 3 days by MTT assay; assay type: functional; set-up: scale not given: the % may be the effect or the level left; settings: time 3 day
[3] = in vitro; settings: rat, liver microsomes
[4] = in vitro; settings: rat, liver microsomes; remark: listed apart in the source
[5] = tested on: LoVo; test: Antiproliferative activity against ATM-deficient human LoVo cells assessed as reduction in cell proliferation incubated for 3 days by MTT assay; assay type: functional, cell-based; settings: 72 h
[6] = tested on: HT-29; test: Antiproliferative activity against ATM-proficient human HT-29 cells assessed as reduction in cell proliferation incubated for 3 days by MTT assay; assay type: functional, cell-based; settings: HT-29, 72 h
[7] = in vitro; settings: human, liver microsomes
[8] = in vitro; settings: human, liver microsomes; remark: listed apart in the source
[9] = in vitro; settings: rat, liver microsomes; remark: listed apart in the source
[10] = in vitro; settings: human, liver microsomes; remark: listed apart in the source

Serine/threonine-protein kinase ATR, sequence (Q13535 whole entry): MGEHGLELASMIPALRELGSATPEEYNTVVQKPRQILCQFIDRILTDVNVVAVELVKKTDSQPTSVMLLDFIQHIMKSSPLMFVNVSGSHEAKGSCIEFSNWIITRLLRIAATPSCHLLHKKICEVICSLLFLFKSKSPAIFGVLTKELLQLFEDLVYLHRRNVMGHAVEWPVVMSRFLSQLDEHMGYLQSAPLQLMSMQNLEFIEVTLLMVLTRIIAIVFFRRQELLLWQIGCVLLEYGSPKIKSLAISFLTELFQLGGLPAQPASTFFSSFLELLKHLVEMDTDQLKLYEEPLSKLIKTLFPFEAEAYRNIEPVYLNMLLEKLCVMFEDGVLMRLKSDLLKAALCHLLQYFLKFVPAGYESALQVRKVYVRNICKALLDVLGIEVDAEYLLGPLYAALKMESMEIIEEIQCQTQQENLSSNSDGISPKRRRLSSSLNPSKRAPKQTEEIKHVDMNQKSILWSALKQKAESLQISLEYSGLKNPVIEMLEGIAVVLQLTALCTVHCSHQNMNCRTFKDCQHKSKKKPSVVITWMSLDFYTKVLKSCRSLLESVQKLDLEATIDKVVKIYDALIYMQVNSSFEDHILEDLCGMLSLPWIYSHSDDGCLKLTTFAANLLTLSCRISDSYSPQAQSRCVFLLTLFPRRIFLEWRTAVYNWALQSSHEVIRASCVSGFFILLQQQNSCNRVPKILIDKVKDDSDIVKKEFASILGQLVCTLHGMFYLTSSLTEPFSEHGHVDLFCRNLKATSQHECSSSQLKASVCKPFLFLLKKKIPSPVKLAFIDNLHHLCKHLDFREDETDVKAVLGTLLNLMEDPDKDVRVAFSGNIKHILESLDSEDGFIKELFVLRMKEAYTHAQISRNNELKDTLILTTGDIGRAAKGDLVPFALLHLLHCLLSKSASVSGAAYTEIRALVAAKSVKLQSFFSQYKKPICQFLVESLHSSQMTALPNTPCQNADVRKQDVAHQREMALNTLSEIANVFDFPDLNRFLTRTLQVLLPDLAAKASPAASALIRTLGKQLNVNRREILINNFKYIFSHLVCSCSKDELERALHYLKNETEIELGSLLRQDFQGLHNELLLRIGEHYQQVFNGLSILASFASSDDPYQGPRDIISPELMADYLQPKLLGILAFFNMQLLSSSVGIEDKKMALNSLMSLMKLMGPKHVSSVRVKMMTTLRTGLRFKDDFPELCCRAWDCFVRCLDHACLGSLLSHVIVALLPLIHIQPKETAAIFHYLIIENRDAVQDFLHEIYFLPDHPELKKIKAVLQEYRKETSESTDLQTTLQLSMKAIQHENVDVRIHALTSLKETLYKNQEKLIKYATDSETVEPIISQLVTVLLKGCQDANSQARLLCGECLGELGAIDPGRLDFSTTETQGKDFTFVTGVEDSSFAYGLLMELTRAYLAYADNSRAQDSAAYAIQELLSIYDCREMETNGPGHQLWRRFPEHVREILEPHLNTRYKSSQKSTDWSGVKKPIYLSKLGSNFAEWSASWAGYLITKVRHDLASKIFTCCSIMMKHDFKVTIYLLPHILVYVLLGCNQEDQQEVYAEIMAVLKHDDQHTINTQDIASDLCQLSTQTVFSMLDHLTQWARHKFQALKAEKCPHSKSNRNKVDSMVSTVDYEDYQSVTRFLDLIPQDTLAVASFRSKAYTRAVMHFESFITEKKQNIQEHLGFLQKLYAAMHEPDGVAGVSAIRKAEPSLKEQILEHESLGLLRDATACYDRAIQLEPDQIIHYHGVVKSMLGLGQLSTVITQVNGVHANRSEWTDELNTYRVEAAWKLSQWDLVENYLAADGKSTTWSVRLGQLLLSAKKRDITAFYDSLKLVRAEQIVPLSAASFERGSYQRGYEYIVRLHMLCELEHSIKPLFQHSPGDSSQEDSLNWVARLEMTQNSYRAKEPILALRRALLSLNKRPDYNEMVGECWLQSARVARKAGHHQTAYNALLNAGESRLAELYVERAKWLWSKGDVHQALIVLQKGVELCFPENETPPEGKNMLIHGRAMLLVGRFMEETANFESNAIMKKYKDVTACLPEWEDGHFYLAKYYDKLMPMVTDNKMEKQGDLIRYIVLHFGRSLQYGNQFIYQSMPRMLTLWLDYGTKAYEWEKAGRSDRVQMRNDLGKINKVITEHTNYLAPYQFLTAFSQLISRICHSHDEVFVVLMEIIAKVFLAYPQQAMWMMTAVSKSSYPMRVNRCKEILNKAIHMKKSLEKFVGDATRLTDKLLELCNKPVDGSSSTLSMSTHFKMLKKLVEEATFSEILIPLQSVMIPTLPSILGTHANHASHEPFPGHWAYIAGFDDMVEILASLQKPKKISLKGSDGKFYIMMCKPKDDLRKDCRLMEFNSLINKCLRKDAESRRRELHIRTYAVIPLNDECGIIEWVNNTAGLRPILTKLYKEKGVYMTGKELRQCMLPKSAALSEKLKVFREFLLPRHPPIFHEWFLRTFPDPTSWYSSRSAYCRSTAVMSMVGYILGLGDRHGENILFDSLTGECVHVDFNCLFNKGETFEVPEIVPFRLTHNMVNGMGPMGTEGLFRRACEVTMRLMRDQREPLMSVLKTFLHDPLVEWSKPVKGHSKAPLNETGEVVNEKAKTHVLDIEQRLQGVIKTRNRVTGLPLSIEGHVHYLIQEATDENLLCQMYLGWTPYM

`CC(C)C(=O)N1Cc2c(N3CCOC[C@H]3C)nc(-c3cccc4[nH]ccc34)nc2C1(C)C` gave an IC50 [1] of 8 nM and an Activity [2] of under 45%.
`C[C@@H]1COCCN1c1nc(-c2cccc3[nH]ccc23)nc2c1CN(C(=O)c1ccc(OC(F)(F)F)cc1)C2(C)C` gave an IC50 [1] of 42 nM.
`C[C@@H]1COCCN1c1nc(-c2cccc3[nH]ccc23)nc2c1CCN(C(=O)C(C)(C)C)C2(C)C` gave an IC50 [1] of 17 nM.
`C[C@@H]1COCCN1c1nc(-c2cccc3[nH]ccc23)nc2c1CCN(C(=O)Cc1ccccc1)C2(C)C` gave an IC50 [1] of 22 nM.
Compound `C[C@@H]1COCCN1c1nc(-c2cccc3[nH]ccc23)nc2c1CCN(C(=O)c1ccc(C(F)(F)F)cc1)C2(C)C` has an IC50 [1] of over 100 nM.
Work on `C[C@@H]1COCCN1c1nc(-c2cccc3[nH]ccc23)nc2c1CCN(C(=O)Cc1cccs1)C2(C)C` yielded an IC50 [1] of 9 nM.
Work on `CCC(=O)N1Cc2c(N3CCOC[C@H]3C)nc(-c3cccc4[nH]ccc34)nc2C1(C)C` yielded an IC50 [1] of 2 nM and an Activity [2] of under 45%.
`C[C@@H]1COCCN1c1nc(-c2cccc3[nH]ccc23)nc2c1CCN(C(=O)C1CCC1)C2(C)C` showed an IC50 [1] of 17 nM.
Work on `CC(=O)N1CCc2nc(-c3cccc4[nH]ccc34)nc(N3CCOC[C@H]3C)c2C1` yielded an IC50 [1] of over 100 nM.
With `COc1cccc(C(=O)N2CCc3c(N4CCOC[C@H]4C)nc(-c4cccc5[nH]ccc45)nc3C23CCC3)c1` the IC50 [1] was over 100 nM.
In the case of `COc1ccc(C(=O)N2CCc3nc(-c4cccc5[nH]ccc45)nc(N4CCOC[C@H]4C)c3C2)cc1`, the IC50 [1] is reported as over 1100 nM.
Compound `C[C@@H]1COCCN1c1nc(-c2cccc3[nH]ccc23)nc2c1CCN(C(=O)c1ccc(F)cc1)C2(C)C` has an IC50 [1] of 18 nM.
`COc1ccc(C(=O)N2CCc3c(N4CCOC[C@H]4C)nc(-c4cccc5[nH]ccc45)nc3C2(C)C)cc1` showed an IC50 [1] of 9 nM.
In the case of `COc1ccc(C(=O)N2CCc3c(N4CCOC[C@H]4C)nc(-c4cccc5[nH]ccc45)nc3C23CCC3)cc1`, the IC50 [1] is reported as over 100 nM.
In the case of `COc1cc(C(=O)N2Cc3c(N4CCOC[C@H]4C)nc(-c4cccc5[nH]ccc45)nc3C2(C)C)cc(OC)c1OC`, the IC50 [1] is reported as 19 nM.
`CCOC(=O)N1CCc2c(N3CCOC[C@H]3C)nc(-c3cccc4[nH]ccc34)nc2C1(C)C` gave an IC50 [1] of 18 nM.
In the case of `COc1cccc(C(=O)N2CCc3nc(-c4cccc5[nH]ccc45)nc(N4CCOC[C@H]4C)c3C2)c1`, the IC50 [1] is reported as over 100 nM.
With `C[C@@H]1COCCN1c1nc(-c2cccc3[nH]ccc23)nc2c1CN(C(=O)C1CC1)CC2` the IC50 [1] was 111 nM.
`COc1cccc(C(=O)N2CCc3c(nc(-c4cccc5[nH]ccc45)nc3N3CCOC[C@H]3C)C2)c1` showed an IC50 [1] of 76 nM.
For `C[C@@H]1COCCN1c1nc(-c2cccc3[nH]ccc23)nc2c1CN(C(=O)C(C)(C)C)C2(C)C`, the IC50 [1] was 12 nM and the Activity [2] was under 45%.
`COc1ccc(C(=O)N2CCc3c(nc(-c4cccc5[nH]ccc45)nc3N3CCOC[C@H]3C)C2)cc1` showed an IC50 [1] of 51 nM.
With `CCC(=O)N1CCc2c(N3CCOC[C@H]3C)nc(-c3cccc4[nH]ccc34)nc2C12CCC2` the IC50 [1] was 23 nM.
`CC(C)C(=O)N1CCc2c(N3CCOC[C@H]3C)nc(-c3cccc4[nH]ccc34)nc2C1(C)C` showed a half-life at 1 h, 1 µM [3] of 10.9 min, an IC50 [1] of 10 nM and a CLint scaled at 1 h, 1 µM [4] of 232 mL/min/kg. For the same compound, the IC50 [5] was 1120 nM, the IC50 [6] was 4310 nM and the CLint scaled at 1 h, 1 µM [7] was 466 mL/min/kg. The half-life at 1 h, 1 µM [8] was 2.82 min, the microsomal CLint at 1 h, 1 µM [9] was 129 µL/min/mg and the microsomal CLint at 1 h, 1 µM [10] was 493 µL/min/mg.
With `Cc1cccc(C(=O)N2CCc3c(N4CCOC[C@H]4C)nc(-c4cccc5[nH]ccc45)nc3C2(C)C)c1` the IC50 [1] was 17 nM.
Work on `CCC(=O)N1CCc2c(nc(-c3cccc4[nH]ccc34)nc2N2CCOC[C@H]2C)C1` yielded an IC50 [1] of 38 nM.
`COc1ccc(C(=O)N2Cc3c(N4CCOC[C@H]4C)nc(-c4cccc5[nH]ccc45)nc3C2(C)C)cc1OC` gave an IC50 [1] of 7 nM.

From ChEMBL document CHEMBL5331073, “Discovery of novel 7,7-dimethyl-6,7-dihydro-5H-pyrrolo[3,4-d]pyrimidines as ATR inhibitors based on structure-based drug design” (Eur J Med Chem, 2023)
